{
  "source": "the supplement of paper PMC10307832",
  "assay_in_all_cases": "relative viability (nuclei count vs DMSO), 5 days (fraction); higher = more cells survive",
  "key": {"[1]": {"compound": "CN[C@@H]1C[C@H]2O[C@@](C)([C@@H]1OC)n1c3ccccc3c3c4c(c5c6ccccc6n2c5c31)C(=O)NC4 [Staurosporine] + Nc1nc2[nH]cc(CCc3ccc(C(=O)N[C@@H](CCC(=O)O)C(=O)O)cc3)c2c(=O)[nH]1 [Pemetrexed] (partner 0.2 µM)", "procedure,_shortened": "(§1)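 Dosing by pin tool came one day after lung cancer cell lines were seeded in 1536-well plates, using either one drug or a fixed anchor-drug dose plus five library-drug doses (not always all listed) in √10 steps. After 5 days, nuclei were counted on 4× images. Relative viability is treated-well nuclei count divided by vehicle-well nuclei count, and values are medians of duplicate plates.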"}, "[2]": {"compound": "O=c1[nH]cc(F)c(=O)[nH]1 [5-Fluorouracil] + Nc1nc2[nH]cc(CCc3ccc(C(=O)N[C@@H](CCC(=O)O)C(=O)O)cc3)c2c(=O)[nH]1 [Pemetrexed] (partner 0.2 µM)", "procedure,_shortened": "as §1"}, "[3]": {"compound": "CC1=C(CC(=O)O)c2cc(F)ccc2/C1=C\\c1ccc([S+](C)[O-])cc1 [Sulindac] + Cc1cc(Nc2cc(N3CCN(C)CC3)nc(Sc3ccc(NC(=O)C4CC4)cc3)n2)n[nH]1 [Tozasertib] (partner 0.1 µM)", "procedure,_shortened": "as §1"}, "[4]": {"compound": "O=c1[nH]cc(F)c(=O)[nH]1 [5-Fluorouracil] + Cc1nc(Nc2ncc(C(=O)Nc3c(C)cccc3Cl)s2)cc(N2CCN(CCO)CC2)n1 [Dasatinib] (partner 0.075 µM)", "procedure,_shortened": "as §1"}},
  "data": [
    {"cell line": "LU99A", "values": [
      {"measurement": "relative viability", "setting": "[1]; first compound 0.005 µM", "value": 0.178},
      {"measurement": "relative viability", "setting": "[1]; first compound 0.01581 µM", "value": 0.168},
      {"measurement": "relative viability", "setting": "[1]; first compound 0.05 µM", "value": 0.16},
      {"measurement": "relative viability", "setting": "[1]; first compound 0.1581 µM", "value": 0.114},
      {"measurement": "relative viability", "setting": "[1]; first compound 0.5 µM", "value": 0.119},
      {"measurement": "relative viability", "setting": "[2]; first compound 0.02 µM", "value": 0.185},
      {"measurement": "relative viability", "setting": "[2]; first compound 0.2 µM", "value": 0.177},
      {"measurement": "relative viability", "setting": "[2]; first compound 0.6325 µM", "value": 0.154},
      {"measurement": "relative viability", "setting": "[2]; first compound 2 µM", "value": 0.171},
      {"measurement": "relative viability", "setting": "[3]; first compound 0.08 µM", "value": 0.265},
      {"measurement": "relative viability", "setting": "[3]; first compound 0.253 µM", "value": 0.266},
      {"measurement": "relative viability", "setting": "[3]; first compound 0.8 µM", "value": 0.285},
      {"measurement": "relative viability", "setting": "[3]; first compound 2.53 µM", "value": 0.252},
      {"measurement": "relative viability", "setting": "[3]; first compound 8 µM", "value": 0.286},
      {"measurement": "relative viability", "setting": "[4]; first compound 0.02 µM", "value": 0.575},
      {"measurement": "relative viability", "setting": "[4]; first compound 0.2 µM", "value": 0.655},
      {"measurement": "relative viability", "setting": "[4]; first compound 0.6325 µM", "value": 0.567},
      {"measurement": "relative viability", "setting": "[4]; first compound 2 µM", "value": 0.4}
    ]},
    {"cell line": "LXF-289", "values": [
      {"measurement": "relative viability", "setting": "[1]; first compound 0.005 µM", "value": 0.812},
      {"measurement": "relative viability", "setting": "[1]; first compound 0.01581 µM", "value": 0.182},
      {"measurement": "relative viability", "setting": "[1]; first compound 0.05 µM", "value": 0.307},
      {"measurement": "relative viability", "setting": "[1]; first compound 0.1581 µM", "value": 0.0978},
      {"measurement": "relative viability", "setting": "[1]; first compound 0.5 µM", "value": 0.159},
      {"measurement": "relative viability", "setting": "[2]; first compound 0.02 µM", "value": 0.807},
      {"measurement": "relative viability", "setting": "[2]; first compound 0.2 µM", "value": 0.704},
      {"measurement": "relative viability", "setting": "[2]; first compound 0.6325 µM", "value": 0.494},
      {"measurement": "relative viability", "setting": "[2]; first compound 2 µM", "value": 0.363},
      {"measurement": "relative viability", "setting": "[3]; first compound 0.08 µM", "value": 0.176},
      {"measurement": "relative viability", "setting": "[3]; first compound 0.253 µM", "value": 0.167},
      {"measurement": "relative viability", "setting": "[3]; first compound 0.8 µM", "value": 0.195},
      {"measurement": "relative viability", "setting": "[3]; first compound 2.53 µM", "value": 0.176},
      {"measurement": "relative viability", "setting": "[3]; first compound 8 µM", "value": 0.205},
      {"measurement": "relative viability", "setting": "[4]; first compound 0.02 µM", "value": 0.192},
      {"measurement": "relative viability", "setting": "[4]; first compound 0.2 µM", "value": 0.202},
      {"measurement": "relative viability", "setting": "[4]; first compound 0.6325 µM", "value": 0.152},
      {"measurement": "relative viability", "setting": "[4]; first compound 2 µM", "value": 0.154}
    ]},
    {"cell line": "NCI-H23", "values": [
      {"measurement": "relative viability", "setting": "[1]; first compound 0.005 µM", "value": 0.459},
      {"measurement": "relative viability", "setting": "[1]; first compound 0.01581 µM", "value": 0.143},
      {"measurement": "relative viability", "setting": "[1]; first compound 0.05 µM", "value": 0.216},
      {"measurement": "relative viability", "setting": "[1]; first compound 0.1581 µM", "value": 0.163},
      {"measurement": "relative viability", "setting": "[1]; first compound 0.5 µM", "value": 0.113},
      {"measurement": "relative viability", "setting": "[2]; first compound 0.02 µM", "value": 0.944},
      {"measurement": "relative viability", "setting": "[2]; first compound 0.2 µM", "value": 0.63},
      {"measurement": "relative viability", "setting": "[2]; first compound 0.6325 µM", "value": 0.408},
      {"measurement": "relative viability", "setting": "[2]; first compound 2 µM", "value": 0.337},
      {"measurement": "relative viability", "setting": "[3]; first compound 0.08 µM", "value": 0.292},
      {"measurement": "relative viability", "setting": "[3]; first compound 0.8 µM", "value": 0.323},
      {"measurement": "relative viability", "setting": "[3]; first compound 2.53 µM", "value": 0.354},
      {"measurement": "relative viability", "setting": "[3]; first compound 8 µM", "value": 0.535},
      {"measurement": "relative viability", "setting": "[4]; first compound 0.02 µM", "value": 0.789},
      {"measurement": "relative viability", "setting": "[4]; first compound 0.2 µM", "value": 0.991},
      {"measurement": "relative viability", "setting": "[4]; first compound 0.6325 µM", "value": 0.475},
      {"measurement": "relative viability", "setting": "[4]; first compound 2 µM", "value": 0.278}
    ]},
    {"cell line": "NCI-H322M", "values": [
      {"measurement": "relative viability", "setting": "[1]; first compound 0.005 µM", "value": 0.608},
      {"measurement": "relative viability", "setting": "[1]; first compound 0.01581 µM", "value": 0.501},
      {"measurement": "relative viability", "setting": "[1]; first compound 0.05 µM", "value": 0.451},
      {"measurement": "relative viability", "setting": "[1]; first compound 0.1581 µM", "value": 0.423},
      {"measurement": "relative viability", "setting": "[1]; first compound 0.5 µM", "value": 0.388},
      {"measurement": "relative viability", "setting": "[2]; first compound 0.02 µM", "value": 0.602},
      {"measurement": "relative viability", "setting": "[2]; first compound 0.2 µM", "value": 0.598},
      {"measurement": "relative viability", "setting": "[2]; first compound 0.6325 µM", "value": 0.549},
      {"measurement": "relative viability", "setting": "[2]; first compound 2 µM", "value": 0.512},
      {"measurement": "relative viability", "setting": "[3]; first compound 0.08 µM", "value": 0.483},
      {"measurement": "relative viability", "setting": "[3]; first compound 0.253 µM", "value": 0.485},
      {"measurement": "relative viability", "setting": "[3]; first compound 0.8 µM", "value": 0.47},
      {"measurement": "relative viability", "setting": "[3]; first compound 2.53 µM", "value": 0.51},
      {"measurement": "relative viability", "setting": "[3]; first compound 8 µM", "value": 0.499},
      {"measurement": "relative viability", "setting": "[4]; first compound 0.02 µM", "value": 0.279},
      {"measurement": "relative viability", "setting": "[4]; first compound 0.2 µM", "value": 0.243},
      {"measurement": "relative viability", "setting": "[4]; first compound 0.6325 µM", "value": 0.242},
      {"measurement": "relative viability", "setting": "[4]; first compound 2 µM", "value": 0.234}
    ]}
  ]
}
